Source: patent publication US20250222009A1, “DINUCLEAR GOLD(I) COMPLEXES FOR TREATING CANCER” (KING FAHD UNIVERSITY OF PETROLEUM AND MINERALS, priority 2024, published 2025)
pIC50: −log10 of the molar value.

What was measured:
[1] = system: Bcl-2; assay: Bcl-2 expression, flow cytometry; format: cell-based, human; settings: A549, 72 h
Description: (§1) 2.0×10^5 A549 cells were seeded in 6-well plates in a complete medium and treated with the complex 3. Assay results were detected by flow cytometry on a BD FACSCanto II flow cytometer. Data were analyzed using BD FACSDiva v.8.0.1 software (BD Biosciences) unless otherwise indicated. Tumor cells were treated for 72 h with complex 3, then stained for 15 minutes with FITC Annexin-V (Thermo Fisher Scientific) and 7AAD (BD Pharmingen, Milan, Italy). Activated caspase-3,7 was detected using the CaspaTag Caspase-3,7 assay (Merck Millipore) after an incubation of 24 h with complex 3. For B-cell lymphoma/leukemia-2 protein (Bcl-2) and Bcl-2 associated x protein (Bax) analysis, cells were treated for 72 h with C3, then fixed and permeabilized (FIX & PERM Cell Fixation & Cell Permeabilization Kit, Life Technologies). […] The distribution of cells in different cell cycle phases was quantified using ModFit LT 4.0 software (Verity Software House, Topsham, ME, USA) (See: Sulaiman, A. A. A.; Casagrande, N.; Borghese, C.; Corona, G.; Isab, A. A.; Ahmad, S.; Aldinucci, D.; Altaf M. Design, Synthesis, and Preclinical Activity in Ovarian Cancer Models of New Phosphanegold(I)—N-Heterocyclic Carbene Complexes. J Med Chem 2022, 65, 14424-14440, which is incorporated herein by reference in its entirety). […]

[2] = system: A549 cells; assay: Cell cycle analysis (propidium iodide, flow cytometry); format: cell-based, human; settings: A549, 24 h, 0.06-0.60 μM
Description: as §1

[3] = system: caspase-3,7; assay: Caspase-3,7 activation (CaspaTag/FLICA), flow cytometry; format: cell-based, human; settings: A549, 24 h
Description: as §1

[4] = system: MG-63 (osteosarcoma); assay: MTT cytotoxicity assay, MG-63; format: cell-based; settings: 72 h, mean, SD in next cell
Description: The human epithelial ovarian cancer A2780 cell line and its cisplatin-resistant clone A2780cis were obtained from Sigma-Aldrich (Milano, Italy). A2780cis cells were continuously exposed to 1 μM cisplatin to maintain cisplatin resistance. A549 cells (Human non-small cell lung cancer), MCF7 (metastatic breast cancer), PC3 (highly aggressive metastatic prostate cancer), and MG63 (osteosarcoma) were obtained from the American Type Culture Collection (ATCC). Cells were authenticated in laboratory using the PowerPlex 16 HS System. A2780, A2780cis, and PC3 cells were cultured in RPMI-1640 medium; MG63 and MCF7 cells were cultured in DMEM, and A549 cells were cultured in F12 NUT-MIX. The culture medium contained about 10% fetal bovine serum (FBS) (Gibco, Thermo Fisher Scientific, Monza, Italy), about 1% (v/v) of penicillin (10,000 units/mL)-streptomycin (10 mg/mL), and about 1% (v/v) L-glutamine (200 mM) (all from Sigma-Aldrich). Cells were cultured at 37° C. in a 5% CO2, fully humidified atmosphere.
2.5×10^3 (PC3, MG63, MCF7) or 4.0×10^3 (A2780, A2780cis, A549) cells were seeded in 96-well microplates in 100 μL culture medium. Cells, allowed to adhere for 24 h, were then treated in triplicate with increasing concentrations of gold compounds. Cisplatin was included as a reference drug. Cell viability was evaluated using 3-(4,5-dimethylthiazol-2-yl)-2,5-diphenyltetrazolium bromide (MTT) assay (Sigma-Aldrich) after 72 h of treatment. Half maximal inhibitory concentrations (IC50), IC25, and IC75 were calculated using the CalcuSyn software version 2 (Biosoft, Ferguson, MO, USA) (See: Chou, T. C.; Talalay, P. Quantitative Analysis of Dose-Effect Relationships: The Combined Effects of Multiple Drugs or Enzyme Inhibitors. Adv. Enzyme Regul. 1984, 22, 27-55, which is incorporated herein by reference in its entirety). Fold resistance was calculated as the ratio of the IC50 of the A2780cis to that of the parental cell line A2780. […]

[5] = system: CD133; assay: CD133 surface expression, flow cytometry; format: cell-based, human; settings: A549, 24 h
Description: as §1

[6] = system: CD44; assay: CD44 surface expression, flow cytometry; format: cell-based, human; settings: A549, 24 h
Description: as §1

[7] = system: ALDH1; assay: ALDH1 enzymatic activity (Aldeflour), flow cytometry; format: cell-based, human; settings: A549, 24 h
Description: as §1

[8] = system: A549 cells; assay: Mitochondrial ROS generation (MitoSOX Red); format: cell-based, human; settings: A549, 48 h
Description: as §1

`CC(C)c1cccc(C(C)C)c1-n1ccn(-c2c(C(C)C)cccc2C(C)C)[c]1=[Au-][P+](CCNCC[P+]([Au-]=[c]1n(-c2c(C(C)C)cccc2C(C)C)ccn1-c1c(C(C)C)cccc1C(C)C)(C1CCCCC1)C1CCCCC1)(C1CCCCC1)C1CCCCC1` [Complex 3, [(Au(IPr))2(C28H24P2)](PF6)2] was tested, and the “anti-apoptotic BCL-2 expression” value [1] was “down-regulated”, the “cells in G0/G1 phase of the cell cycle” value [2] was “accumulation” and the “cells in S phase of the cell cycle” value [2] was “decrease”. The “caspase-3,7 activation” value [3] was “activated”, the pIC50 [4] was 6.80 and the CD133 expression levels [5] was “reduced”. The CD44 expression [6] was “decreased”, the ALDH1 enzymatic activity [7] was “reduced” and the “mitochondrial reactive oxygen species (mit-ROS)” value [8] was “increased”.
